This is an account of results in patent US20110171274A1, “Fesoterodine Substantially Free of Dehydroxy Impurity” (ACTAVIS GROUP PTC EHF, priority 2008, published 2011).

Counter-ions that a name gives are not always drawn.

Assay type in all cases: physicochemical
Series [1] is described as follows: Particle size distribution by laser diffraction (Malvern Master Sizer 2000). The following applies: for Particle Size (D10) / Particle Size (D50) / Particle Size (D90): as crystallised from isopropyl alcohol / isopropyl ether. The source says: As used herein, “Particle Size Distribution (PSD)” means the cumulative volume size distribution of equivalent spherical diameters as determined by laser diffraction in Malvern Master Sizer 2000 equipment or its equivalent. “Mean particle size distribution, i.e., (D50)” correspondingly, means the median of said particle size distribution.
The important characteristics of the PSD were the (D90), which is the size, in microns, below which 90% of the particles by volume are found, and the (D50), which is the size, in microns, below which 50% of the particles by volume are found.

A short description of series [2]: Solubility of fesoterodine fumarate in solvents.
Series [3] can be described thus: Storage stability (crystalline form, lack of formation of impurities). The settings on record: about 25±2° C., relative humidity about 60±5%. An excerpt: The term “remains stable”, as defined herein, refers to lack of formation of impurities, while being stored as described hereinbefore.

Take `CC(C)C(=O)Oc1ccc(CO)cc1[C@H](CCN(C(C)C)C(C)C)c1ccccc1` [Example 7, Fesoterodine Fumarate]: in series [1], the “Particle Size (D10)” value is 4.243 μm, the “Particle Size (D50)” value was determined as 14.875 μm and the “Particle Size (D90)” value is recorded as 90.272 μm.
For the compound `CC(C)C(=O)Oc1ccc(CO)cc1[C@H](CCN(C(C)C)C(C)C)c1ccccc1` [Example 8, Fesoterodine Fumarate], in series [1], the “Particle Size (D10)” value came out at 4.518 μm, the “Particle Size (D50)” value came to 22.291 μm and the “Particle Size (D90)” value was 85.415 μm.
Taken in the same sequence, the figures for `CC(C)C(=O)Oc1ccc(CO)cc1[C@H](CCN(C(C)C)C(C)C)c1ccccc1` [Example 9, Fesoterodine Fumarate] were 4.485 μm, 31.876 μm and 110.282 μm.
On to `CC(C)C(=O)Oc1ccc(CO)cc1[C@H](CCN(C(C)C)C(C)C)c1ccccc1` [Example 10, Fesoterodine fumarate], for which the “diameter of 90 volume-% of the particles (D90)” value in series [1] (after fine-milling in a grinder for 3-4 minutes) was “less than 50 microns”.
As to `CC(C)C(=O)Oc1ccc(CO)cc1[C@H](CCN(C(C)C)C(C)C)c1ccccc1` [Fesoterodine fumarate, 2-[(1R)-3-[bis(1-methylethyl)amino]-1-phenylpropyl]-4-hydroxymethylphenyl isobutyrate], the “solubility in aqueous solvents” value in series [2] (aqueous solvents) is recorded as “freely soluble”. Moreover, in series [2] (heptane), the solubility in heptane entry is given as “practically insoluble”. For the same compound, the “solubility in polar non protic solvents” value in series [2] (polar non protic solvents (acetone, DMF, DMSO, acetonitrile)) is “soluble”. For the same compound, the “solubility in polar protic organic solvents” value in series [2] (some polar protic organic solvents (ethanol, methanol, glacial acetic acid, 2-propanol, propylene glycol)) is listed as “soluble”. In addition, in series [2] (toluene), the solubility in toluene entry is listed as “slightly soluble”. The storage stability result is “remains in the same crystalline form and stable” in series [3] (3 months); “remains in the same crystalline form and stable” in series [3] (at least one month).
